Source: patent publication US4226610A, “Herbicidal compounds, preparation thereof and herbicides containing the same” (Meiji Selka Kaisha, Ltd., priority 1978, dated 1980)
Counter-ions that a name gives are not always drawn.

What was measured:
[1] = system: yabugarashi; assay: Experiment 1 foliar application to naturally growing weeds; format: in vivo, Cayratia japonica Houtt.; conditions: 4 months, monosodium salt
From the text: (§1) The detail of the assessment made in the following Experiments of the invention was as follows:
(§2) Four months after treatment, evaluation was made for inhibition of reproduction expressed in terms of symbols ranging from (-) to (+++) where (-) means no reproduction, namely complete suppression of reproduction, (±) remarkable suppression of reproduction; (+) considerable suppression of reproduction; (++) medium supprestion of reproduction; and (+++) no suppression of reproduction.
(§3) The compounds of the invention and other compounds for comparison listed in Table 3 were diluted to prescribed concentrations and sprayed to naturally growing weeds by foliar application in an amount of 150 liter per 10 are.
(§4) 0.1% of octylphenyl polyoxyethanol was added as a surfactant.
(§5) The killing index (0, no effect, 5, death) after 21 days, and the reproduction-inhibiting effect (-, no reproduction; +++, maximum reproduction) after 2 months (manna grass and cockspar grass) and 4 months (other weeds) were determined.

[2] = system: purple nutsedge; assay: as above; format: in vivo, Cyperus rotundus L.; conditions: 4 months, monosodium salt
From the text: as §1, §2, §3, §4, §5

[3] = system: water hyacinth; assay: Experiment 5 foliar application to water hyacinths; format: in vivo, Eichhornia crassipes Solms; conditions: 3 months
From the text: as §1, §2
Water was placed in 20 cm.×30 cm. plastic vessels and a liquid fertilizer was added thereto. Two water hyacinths were floated in each vessel.
0.1 or 0.2% aqueous solutions of each of the compounds of the invention listed in Table 7 were sprayed by foliar application in an amount of 100 liter per 10 are. As a surfactant, 0.1% of octylphenyl polyoxyethanol was added.
The killing index (0, no effect; 5, death) after 21 days and 3 months, and the reproduction-inhibiting effect (-, no reproduction; +++, maximum reproduction) after 3 months were determined.

[4] = system: lace shrub; assay: Experiment 3 foliar application to naturally growing shrubs; format: in vivo, Stephanandra incisa Zabel; conditions: for Reproduction-inhibiting: after 3 months
From the text: as §1, §2
(§6) The compounds of the invention and other compounds listed in Table 5. were diluted to prescribed concentrations and sprayed onto naturally growing shrubs by foliar application in an amount of 150 liter per 10 are.
(§7) 0.1% of octylphenyl polyoxyethanol was added as the surfactant. The killing index (0, no effect; 5, death) after 1 month and 3 months, and the reproduction-inhibiting effect (-, no reproduction; +++, maximum reproduction) after 3 months were determined.

[5] = system: azumanezasa; assay: Experiment 1 foliar application to naturally growing weeds; format: in vivo, Pleioblastus Chino Makino; conditions: for Reproduction-inhibiting effect: 4 months; for Killing index of Upperground parts: 21 days
From the text: as §1, §2, §3, §4, §5

[6] = system: kumaichigo; assay: Experiment 2 foliar application in Japanese cypress afforested land; format: in vivo, Rubus crataegifolius Bunge; conditions: 0.125%; after 30 days; monosodium salt
Protocol: as §1
(§8) The compounds of the invention and other compounds listed in Table 4. were diluted to prescribed concentrations and sprayed to shrubs by foliar application in a Japanese cypress afforested land in an amount of 150 liter per 10 are.
(§9) After 30 days and 3 months, the killing index (0, no effect; 5, death) was determined.
(§10) The heights of plants were 50-70 cm. for Japanese cypress, about 50 cm. for chestnut, 50-90 cm. for miyakozasa, about 100 cm. for eulalia and 70-100 cm. for kumaichigo, respectively.

[7] = system: white clover; assay: Experiment 1 foliar application to naturally growing weeds; format: in vivo, Trifolium repens L.; conditions: for Reproduction-inhibiting effect: 4 months
From the text: as §1, §2, §3, §4, §5

[8] = system: eulalia; assay: Experiment 2 foliar application in Japanese cypress afforested land; format: in vivo, Miscanthus sinensis Andress.; parameters: key: 0 = no effect, 5 = death; conditions: 0.125%, monosodium salt
Protocol: as §1, §8, §9, §10

[9] = system: manna grass; assay: Experiment 1 foliar application to naturally growing weeds; format: in vivo, Digitaria adsceudes Henr.; conditions: for Reproduction-inhibiting effect: 2 months
From the text: as §1, §2, §3, §4, §5

[10] = system: Japanese bush cranberry; assay: Experiment 3 foliar application to naturally growing shrubs; format: in vivo, Viburnum dilatatum Thunb.; conditions: after 3 months
From the text: as §1, §2, §6, §7

[11] = system: torch azalea; assay: as above; format: in vivo, Rhododendoron Kaempferi Planch.; conditions: after 3 months
From the text: as §1, §2, §6, §7

[12] = system: Japanese prickly ash; assay: as above; format: in vivo, Xanthoxylum piperitum DC.; conditions: after 3 months
From the text: as §1, §2, §6, §7

[13] = system: chigaya; assay: Experiment 1 foliar application to naturally growing weeds; format: in vivo, Imperata cylindrica Beauv.; conditions: 4 months
From the text: as §1, §2, §3, §4, §5

[14] = system: warunasubi; assay: as above; format: in vivo, Solanum carolinensis L.; conditions: 4 months, monosodium salt
From the text: as §1, §2, §3, §4, §5

[15] = system: oak; assay: Experiment 3 foliar application to naturally growing shrubs; format: in vivo, Quercus serrata Thunb; conditions: after 3 months
From the text: as §1, §2, §6, §7

[16] = system: kiichigo; assay: as above; format: in vivo, Rubus palmatsu Thunb. forma coptophyllus Makino
From the text: as §1, §2, §6, §7

[17] = system: hedge bindweed; assay: Experiment 1 foliar application to naturally growing weeds; format: in vivo, Calystegis hederacea Wall.; conditions: 4 months, monosodium salt
From the text: as §1, §2, §3, §4, §5

[18] = system: cockspar grass; assay: as above; format: in vivo, Echinochloa Crusgalli P. Beauv.; conditions: for Reproduction-inhibiting effect: 2 months
From the text: as §1, §2, §3, §4, §5

[19] = system: yamazakura; assay: Experiment 3 foliar application to naturally growing shrubs; format: in vivo, Prunus donarium Sieb. var. spontanae Makino; conditions: after 3 months
From the text: as §1, §2, §6, §7

[20] = 0.05%, after 30 days, monosodium salt
[21] = 0.05%, after 3 months, monosodium salt

For `CP(=O)(O)CC[C@H](N)C(=O)O` [L-2-Amino-4-methylphosphinobutanoic acid monosodium salt], which Reproduction-inhibiting effect ([1]; 0.05%) is on record?
Its Reproduction-inhibiting effect is “++”.

What about the Reproduction-inhibiting effect ([1]; 0.1%) of the same compound?
Its Reproduction-inhibiting effect is “+”.

What about the Reproduction-inhibiting effect ([1]; 0.2%) of the same compound?
Its Reproduction-inhibiting effect is “±”.

And the Reproduction-inhibiting effect ([2]; 0.05%)?
The Reproduction-inhibiting effect was “+++”.

And the Reproduction-inhibiting effect ([2]; 0.1%)?
The Reproduction-inhibiting effect was “+”.

And the Reproduction-inhibiting effect ([2]; 0.2%)?
Its Reproduction-inhibiting effect is “±”.

And the Reproduction-inhibiting effect ([3]; 0.1%, listed as L-AMPB monosodium salt, monosodium salt)?
Its Reproduction-inhibiting effect is “±”.

And the Reproduction-inhibiting effect ([3]; 0.2%)?
Its Reproduction-inhibiting effect is “-”.

And the Reproduction-inhibiting ([4]; 0.05%, monosodium salt)?
Its Reproduction-inhibiting is “++”.

What about the Killing index [4, 20] of the same compound?
Its Killing index is 3.5.

And the Reproduction-inhibiting ([4]; 0.1%)?
Its Reproduction-inhibiting is “-”.

What about the Reproduction-inhibiting ([4]; 0.2%) of the same compound?
Its Reproduction-inhibiting is “-”.

And the Reproduction-inhibiting effect ([5]; 0.05%, monosodium salt)?
The Reproduction-inhibiting effect was “++”.

What about the “Killing index of Upperground parts” value ([5]; 0.05%, monosodium salt) of the same compound?
The value was 2.5.

What about the Reproduction-inhibiting effect ([5]; 0.1%) of the same compound?
Its Reproduction-inhibiting effect is “-”.

And the “Killing index of Upperground parts” value ([5]; 0.1%, monosodium salt)?
Its value is 4.5.

What about the Reproduction-inhibiting effect ([5]; 0.2%) of the same compound?
The Reproduction-inhibiting effect was “-”.

What about the Killing index [6] of the same compound?
Its Killing index is 4.5.

And the Reproduction-inhibiting effect ([7]; 0.05%, monosodium salt)?
The Reproduction-inhibiting effect was “+++”.

What about the Reproduction-inhibiting effect ([7]; 0.1%, monosodium salt) of the same compound?
The Reproduction-inhibiting effect was “+”.

And the “Killing index of Upperground parts” value ([7]; 0.1%, 21 days, monosodium salt)?
The value was 4.5.

And the Reproduction-inhibiting effect ([7]; 0.2%)?
The Reproduction-inhibiting effect was “-”.

What about the Killing index ([8]; after 3 months) of the same compound?
The Killing index was 4.5.

What about the Killing index ([8]; after 30 days) of the same compound?
The Killing index was 3.5.

And the Reproduction-inhibiting effect ([9]; 0.05%, monosodium salt)?
The Reproduction-inhibiting effect was “++”.

What about the Reproduction-inhibiting effect ([9]; 0.1%, monosodium salt) of the same compound?
The Reproduction-inhibiting effect was “±”.

What about the “Killing index of Upperground parts” value ([9]; 0.1%, 21 days, monosodium salt) of the same compound?
Its value is 4.5.

What about the Reproduction-inhibiting effect ([9]; 0.2%) of the same compound?
The Reproduction-inhibiting effect was “-”.

And the Reproduction-inhibiting ([10]; 0.05%, monosodium salt)?
Its Reproduction-inhibiting is “+++”.

What about the Reproduction-inhibiting ([10]; 0.1%, monosodium salt) of the same compound?
The Reproduction-inhibiting was “++”.

And the Reproduction-inhibiting ([10]; 0.2%)?
The Reproduction-inhibiting was “-”.

What about the Reproduction-inhibiting ([11]; 0.05%, monosodium salt) of the same compound?
The Reproduction-inhibiting was “+++”.

What about the Reproduction-inhibiting ([11]; 0.1%) of the same compound?
The Reproduction-inhibiting was “-”.

What about the Reproduction-inhibiting ([11]; 0.2%) of the same compound?
The Reproduction-inhibiting was “-”.

What about the Reproduction-inhibiting ([12]; 0.05%, monosodium salt) of the same compound?
The Reproduction-inhibiting was “+++”.

And the Reproduction-inhibiting ([12]; 0.1%, monosodium salt)?
Its Reproduction-inhibiting is “+”.

What about the Reproduction-inhibiting ([12]; 0.2%) of the same compound?
The Reproduction-inhibiting was “-”.

And the Reproduction-inhibiting effect ([13]; 0.05%, monosodium salt)?
Its Reproduction-inhibiting effect is “++”.

And the Reproduction-inhibiting effect ([13]; 0.1%)?
Its Reproduction-inhibiting effect is “-”.

And the Reproduction-inhibiting effect ([13]; 0.2%)?
The Reproduction-inhibiting effect was “-”.

And the Reproduction-inhibiting effect ([14]; 0.05%)?
The Reproduction-inhibiting effect was “+++”.

What about the Reproduction-inhibiting effect ([14]; 0.1%) of the same compound?
The Reproduction-inhibiting effect was “+”.

What about the Reproduction-inhibiting effect ([14]; 0.2%) of the same compound?
Its Reproduction-inhibiting effect is “±”.

What about the Reproduction-inhibiting ([15]; 0.05%, monosodium salt) of the same compound?
The Reproduction-inhibiting was “++”.

And the Reproduction-inhibiting ([15]; 0.1%)?
The Reproduction-inhibiting was “-”.

And the Reproduction-inhibiting ([15]; 0.2%)?
The Reproduction-inhibiting was “-”.

What about the Killing index [16, 21] of the same compound?
The Killing index was 1.5.

What about the Reproduction-inhibiting [16, 21] of the same compound?
The Reproduction-inhibiting was “++”.

What about the Killing index [16, 20] of the same compound?
The Killing index was 3.5.

And the Reproduction-inhibiting ([16]; 0.1%, after 3 months)?
The Reproduction-inhibiting was “-”.

And the Reproduction-inhibiting ([16]; 0.2%, after 3 months)?
The Reproduction-inhibiting was “-”.

What about the Reproduction-inhibiting effect ([17]; 0.05%) of the same compound?
Its Reproduction-inhibiting effect is “+++”.

And the Reproduction-inhibiting effect ([17]; 0.1%)?
The Reproduction-inhibiting effect was “++”.

What about the Reproduction-inhibiting effect ([17]; 0.2%) of the same compound?
The Reproduction-inhibiting effect was “+”.

What about the Reproduction-inhibiting effect ([18]; 0.05%, monosodium salt) of the same compound?
Its Reproduction-inhibiting effect is “++”.

And the Reproduction-inhibiting effect ([18]; 0.1%, monosodium salt)?
Its Reproduction-inhibiting effect is “±”.

What about the “Killing index of Upperground parts” value ([18]; 0.1%, 21 days, monosodium salt) of the same compound?
The value was 4.5.

And the Reproduction-inhibiting effect ([18]; 0.2%)?
The Reproduction-inhibiting effect was “-”.

What about the Killing index ([19]; 0.05%, monosodium salt) of the same compound?
Its Killing index is 1.5.

And the Reproduction-inhibiting ([19]; 0.05%, monosodium salt)?
The Reproduction-inhibiting was “++”.

And the Reproduction-inhibiting ([19]; 0.1%)?
The Reproduction-inhibiting was “-”.

What about the Reproduction-inhibiting ([19]; 0.2%) of the same compound?
Its Reproduction-inhibiting is “-”.
